Experimental findings from patent publication US6416987B1, “Mutants of thymidylate synthase and uses thereof” (Sloan Kettering Institute for Cancer Research, priority 1997, dated 2002) are described below.

In general, inhibition refers to the change of the read-out against control, counted positive when it falls. Lower therefore signals a weak effect.

Read-outs that look alike come from different tables or passages of the source.

In assay [1] the test system is TS-negative FSthy21 cells transfected with F225W mutant human TS cDNA. In kind it is cell-based, mouse. As to conditions: for resistance, IC50 values greater than wild-type transfectants: F225W transfectants vs wild-type transfectants.
For assay [2], the system named is TS-negative FSthy21 cells transfected with I108A mutant human TS cDNA. The assay is described as follows: Growth inhibition assay (alamar Blue), I108A transfectants. The following applies: for resistance, IC50 values greater than wild-type transfectants: I108A transfectants vs wild-type transfectants; for Ratio of IC50 values for mutant/wt cells: FdUrd. In general terms: The colour change of resazurin is a common sign of viable cells or microbes.
Procedure: (§2) The mouse TS-negative FSthy21 cells were used as the host for DNA transfections. This cell line, which is a TS-deficient derivative of mouse FM3A cells, was routinely maintained in MEM medium supplemented with 10% fetal bovine serum and 10×10^−5 M thymidine. Transfections were performed by DOTAP, using 10 μg of DNA/culture. Four days after transfection, cells were placed in selective medium, which contain no thymidine and reduced folate. Colonies having the ability to grow in the absence of thymidine were pooled and propagated as a mass culture.
(§3) Logarithmically growing suspension mouse TS-20 negative FSthy21 cells transfected with wild-type or variant human TS cDNA were seeded in 96-well plates at 1,000 cells/well in 180 μl of complete medium. […] Cell viability was measured by the alamar Blue™ assay. This method incorporates an oxidation-reduction (REDOX) indicator that both fluoresces and changes color in response to chemical reduction of growth medium resulting from cell growth. To above 96-well cultured cells, 25 μl of Alamar Blue (Alamar, Sacramento, Calif.) (10% of incubation volume) were added according to the manufacturer's instructions. The culture 96-well plates were then incubated at 37° C. for 4 hours. Viable cells induce chemical reduction of the media which results in a change in REDOX color from blue to red. The intensity of red color (and fluoresces) is proportional to the viable cells. After incubation, fluorescence is was read at 530-560 nm excitation wavelength and 590 nm emission wavelength by an automated plate reader (model EL340; Bio-Tek). Drug concentrations needed to reduce cell growth by 50% (IC50 values) were determined graphically by plotting of cell growth verses inhibitor concentration.
(§4) The effect of three antifolates and FdUrd on the growth characteristics of transfectants that stably express various TS proteins was evaluated by cytotoxicity studies. Cell growth was measured by the alamar blue assay. IC50 values were calculated as the concentration of inhibitor required to inhibit growth by 50% compared to wild-type transfected cells grown under identical conditions.

For another assay, the system named is Normal Bone Marrow cells. The assay is described as follows: CFU-GM assay, Normal Bone Marrow (retroviral vector study). In kind it is cell-based, murine. The following applies: 10 days. An excerpt: (§1) The following tables 15-17 summarize additional proof that these mutants confer resistance to chemotherapeutic agents by increasing the number of drug resistant CFU-GM colonies formed by murine bone marrow cells infected with retroviral vectors containing these mutant TS cDNAs.

The subject of assay [3] is murine bone marrow cells infected with G52S mut-TS vector. The assay is described as follows: CFU-GM assay, marrow infected with G52S mut-TS retroviral vector. In kind it is cell-based. As to conditions: 10 days.
From the text: as §1

The subject of assay [4] is murine bone marrow cells infected with Wt TS vector. The assay is described as follows: CFU-GM assay, marrow infected with Wt TS retroviral vector. In kind it is cell-based. As to conditions: 10 days.
The next assay deals with HT1080 cells. The assay is described as follows: EMS sensitivity of HT1080 cells (colony formation). In kind it is cell-based. As to conditions: Homo sapiens, HT-1080; 400 μg/ml EMS, 18 hr exposure. As to the method: HT1080 cells were seeded into 6-well plates (100-300 cells/well). After overnight incubation to allow cell attachment, The cells were exposed with EMS for 18 hours, washed three times, and then incubated with EMS-free medium for a further 14 days. The range of EMS concentration tested was 100 to 1000 μg of EMS/ml of culture medium. Colonies formed (50 cells) were stained with crystal violet and counted. The concentration of EMS used for the random mutagenesis experiments was determined based on the number of colonies obtained in the EMS-treated test versus EMS concentrations (Sega, 1984; Fanin et al., 1993).

Assay [5] concerns TS-negative FSthy21 cells transfected with L221I mutant human TS cDNA. In kind it is cell-based, mouse. The following applies: FdUrd; L221I/clone (1) vs wild-type clone (1).
For assay [6], the system named is TS-negative FSthy21 cells transfected with F225L mutant human TS cDNA. In kind it is cell-based, mouse. As to conditions: FdUrd; F225L/clone (3) vs wild-type clone (1).
Assay [7] deals with TS-negative FSthy21 cells transfected with F225Y mutant human TS cDNA. In kind it is cell-based, mouse. As to conditions: FdUrd; F225Y/clone (1) vs wild-type clone (1).
The subject of assay [8] is TS-negative FSthy21 cells transfected with I108F mutant human TS cDNA. In kind it is cell-based, mouse. As to conditions: FdUrd; 1108F/clone (2) vs wild-type clone (1).
Assay [9] concerns the target TS-negative FSthy21 cells transfected with I108A mutant human TS cDNA (Homo sapiens, UniProt P04818, P2L/I108A, cells depend on it). The assay is described as follows: Growth inhibition assay (alamar Blue), I108A transfectants. The following applies: read-out: IC50 values, FdUrd, 7-day exposure.
Procedure: as §2, §3, §4
Assay [10] concerns TS-negative FSthy21 cells transfected with K47E mutant human TS cDNA. In kind it is cell-based, mouse. As to conditions: FdUrd; K47E/clone (2) vs wild-type clone (1).
For assay [11], the system named is TS-negative FSthy21 cells transfected with L221A mutant human TS cDNA. In kind it is cell-based, mouse. As to conditions: FdUrd; L221A/clone (2) vs wild-type clone (1).
Assay [12] deals with TS-negative FSthy21 cells transfected with L221S mutant human TS cDNA. In kind it is cell-based, mouse. As to conditions: FdUrd; L221S/clone (2) vs wild-type clone (1).
For assay [13], the system named is TS-negative FSthy21 cells transfected with G52S mutant human TS cDNA. In kind it is cell-based, mouse.
For assay [14], the target named is TS-negative FSthy21 cells transfected with wild-type human TS cDNA (Homo sapiens, UniProt P04818, P2L, cells depend on it). The assay is described as follows: Growth inhibition assay (alamar Blue), TS-negative cells transfected with wild-type human TS cDNA. In kind it is cell-based, mouse. The following applies: FdUrd, 7-day exposure, read-out: IC50 values.
Chain of TS-negative FSthy21 cells transfected with wild-type human TS cDNA (P04818 whole entry P2L): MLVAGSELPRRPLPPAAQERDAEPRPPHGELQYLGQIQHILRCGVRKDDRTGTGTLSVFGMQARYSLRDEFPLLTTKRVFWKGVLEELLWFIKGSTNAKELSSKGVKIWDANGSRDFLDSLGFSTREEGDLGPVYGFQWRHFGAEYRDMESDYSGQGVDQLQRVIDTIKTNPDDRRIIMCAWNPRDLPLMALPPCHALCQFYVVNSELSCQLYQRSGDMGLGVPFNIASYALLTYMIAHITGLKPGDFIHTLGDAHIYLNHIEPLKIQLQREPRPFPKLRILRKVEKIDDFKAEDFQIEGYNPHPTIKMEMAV
Assay [15] relates to TS-negative FSthy21 cells transfected with D49G mutant human TS cDNA. In kind it is cell-based, mouse.

Chain of TS-negative FSthy21 cells transfected with I108A mutant human TS cDNA (Homo sapiens, UniProt P04818, P2L/I108A, cells depend on it) (P04818 whole entry P2L/I108A): as the sequence (P04818 whole entry P2L) above, with I108A counted along it

Regarding `Cc1nc2ccc3ccc(CNc4ccc5c(c4)CN([C@@H](CCC(=O)O)C(=O)O)C5=O)cc3c2c(=O)[nH]1`, the results for the “resistance, IC50 values greater than wild-type transfectants” value in assay [1] and in assay [2] were 22 fold and 6 fold, respectively.

Take `O=c1[nH]cc(F)c(=O)[nH]1` [5-FU, 5-fluorouracil]: the CFU-C stood at 0 in the assay on Normal Bone Marrow cells (10^−5 M 5-FU); 16 in the assay on Normal Bone Marrow cells (10^−6 M 5-FU); 10 in assay [3] (10^−5 M 5-FU); 117 in [3] (10^−6 M 5-FU); 0 in assay [4] (10^−5 M 5-FU); 91 in assay [4] (10^−6 M 5-FU). Besides, the “CFU-C, % in parentheses” value in the assay with Normal Bone Marrow cells (10^−6 M 5-FU) came to 10%; in assay [3] (10^−5 M 5-FU), 6%; in assay [3] (10^−6 M 5-FU), 72%; in [4] (10^−6 M 5-FU), 54%. Also, the HPPCFU-C in the assay on Normal Bone Marrow cells (10^−6 M 5-FU) amounted to 0; in assay [3] (10^−6 M 5-FU), 21; in [4] (10^−6 M 5-FU) it was 6. Besides, the entries for the “HPPCFU-C, % in parentheses” value in [3] (10^−6 M 5-FU) and in [4] (10^−6 M 5-FU) were 40% and 14%, respectively.

Consider `CCOS(C)(=O)=O` [EMS, Ethylmethanesulfonate], for which the inhibition at 400 µg/mL in the assay with HT1080 cells was 80%.

`O=c1[nH]c(=O)n([C@H]2C[C@H](O)[C@@H](CO)O2)cc1F` [FdUrd, 5-fluoro-2′-deoxyuridine]: the “resistance, IC50 values greater than wild-type transfectants” value is on record as 25 fold in assay [1], 12 fold in [2], 97 fold in assay [13] (G52S transfectants vs wild-type transfectants) and 26 fold in assay [15] (D49G transfectants vs wild-type transfectants). Besides, the “Ratio of IC50 values for mutant/wt cells” value is 25(1) in assay [1] (FdUrd, F225W/clone (2) vs wild-type clone (1)); 13(1) in assay [5]; 5.7(1) in assay [6]; 1.0(1) in assay [7]; 6.1(1) in [8]; 16(2)^2 in assay [2] (1108A/clone (1) vs wild-type clone (2)). Also, the “Ratio of IC50 values for mutant/wt cells” value in [2] (1108A/clone (2) vs wild-type clone (2)) is on record as 12(2); in assay [2] (1108A/clone (3) vs wild-type clone (2)) it was 15(2); in [10] it was 5.7(1); in assay [11] it was 4.0(1); in assay [12], 1.2(1); in [13] (FdUrd, G52S/clone (3) vs wild-type clone (1)), 97(1). The “Ratio of IC50 values for mutant/wt cells” value in [15] (FdUrd, D49G/clone (1) vs wild-type clone (1)) is recorded as 26(1). For the same compound, the GI50 came to 1.4 ± 0.19 nM in assay [9] (1108A/clone (1) [175-1]); 1.05 ± 0.18 nM in assay [9] (1108A/clone (2) [175-2]); 1.37 ± 0.25 nM in assay [9] (1108A/clone (3) [175-3]); 0.029 ± 0.0003 nM in assay [14] (wild-type/clone (1) [161-1]); 0.0896 ± 0.0062 nM in assay [14] (wild-type/clone (2) [161-2]); 0.0286 ± 0.0002 nM in [14] (wild-type/clone (3) [161-3]).
